Measurements taken from paper PMC3641821 (2011).

Assays:
[1] = system: D4, d[5'-A3G5C5T3-3'] (DNA, duplex) AAAGGGGGCCCCCTTT; test: ITC; settings: 100 mM KCl; 10 mM sodium cacodylate, 0.5 mM EDTA, pH 6.8, 25 °C
[2] = system: D1, d[5'-G3G5C5C3-3'] (DNA, duplex) GGGGGGGGCCCCCCCC; test: ITC; settings: 100 mM KCl; 10 mM sodium cacodylate, 0.5 mM EDTA, pH 6.8, 25 °C
[3] = system: D5, d[5'-A12-x-T12-3'] (intramolecular duplex) (DNA, hairpin, x = hexaethylene glycol linker between positions 12 and 13) AAAAAAAAAAAATTTTTTTTTTTT; test: ITC; settings: 100 mM KCl; 10 mM sodium cacodylate, 0.5 mM EDTA, pH 6.8, 25 °C; site 1 of 2
[4] = system: D6, d[5'-A30T30-3'] (DNA, duplex) AAAAAAAAAAAAAAAAAAAAAAAAAAAAAATTTTTTTTTTTTTTTTTTTTTTTTTTTTTT; test: ITC; settings: 100 mM KCl; 10 mM sodium cacodylate, 0.5 mM EDTA, pH 6.8, 25 °C; site 1 of 2
[5] = system: D9, d[5'-G3(AT)5C3-3'] (DNA, duplex) GGGATATATATATCCC; test: ITC; settings: 100 mM KCl; 10 mM sodium cacodylate, 0.5 mM EDTA, pH 6.8, 25 °C
[6] = system: poly(dA.dT)2 (DNA, polymer) AT; test: UV melting; settings: K+ 100 or 150 mM; Na+ 10 mM (cacodylate); rbd 10; per base
[7] = system: D11, d[5'-(AT)8-3'] (DNA, duplex) ATATATATATATATAT; test: ITC; settings: 100 mM KCl; 10 mM sodium cacodylate, 0.5 mM EDTA, pH 6.8, 25 °C
[8] = system: D8, d[5'-A2GAG2AGAGA2GAGAG2AGA2-3'] 22-mer duplex (DNA, duplex) AAGAGGAGAGAAGAGAGGAGAA/TTCTCCTCTCTTCTCTCCTCTT; test: ITC; settings: 100 mM KCl; 10 mM sodium cacodylate, 0.5 mM EDTA, pH 6.8, 25 °C; site 1 of 2
[9] = system: D2, d[5'-G2A6T6C2-3'] (DNA, duplex) GGAAAAAATTTTTTCC; test: ITC; settings: 100 mM KCl; 10 mM sodium cacodylate, 0.5 mM EDTA, pH 6.8, 25 °C; site 1 of 2
[10] = system: D3, d[5'-G3A5T5C3-3'] (DNA, duplex) GGGAAAAATTTTTCCC; test: ITC; settings: 100 mM KCl; 10 mM sodium cacodylate, 0.5 mM EDTA, pH 6.8, 25 °C; site 1 of 2

| Compound | K1 [1] | K1 [2] | K1 [3] | K1 [4] | K1 [5] | ΔTm [6] | K1 [7] | K1 [8] | K1 [9] | K1 [10] |
| --- | --- | --- | --- | --- | --- | --- | --- | --- | --- | --- |
| NC[C@@H]1O[C@H](O[C@H]2[C@@H](O)[C@H](O[C@@H]3[C@@H](O)[C@H](N)C[C@H](N)[C@H]3O[C@H]3O[C@H](CN)[C@@H](O)[C@H](O)[C@H]3N)O[C@@H]2CO)[C@H](N)[C@@H](O)[C@@H]1O | 2.02 ± 0.20 × 10^5 M^-1 | 3.80 ± 0.18 × 10^5 M^-1 |  |  |  |  |  |  |  |  |
| NC[C@@H]1O[C@H](O[C@H]2[C@@H](O)[C@H](O[C@@H]3[C@@H](O)[C@H](N)C[C@H](N)[C@H]3O[C@H]3O[C@H](CN)[C@@H](O)[C@H](O)[C@H]3N)O[C@@H]2CSCCNC(=S)NCCOCCOCCNC(=S)NCCSC[C@H]2O[C@@H](O[C@@H]3[C@@H](O)[C@H](N)C[C@H](N)[C@H]3O[C@H]3O[C@H](CN)[C@@H](O)[C@H](O)[C@H]3N)[C@H](O)[C@@H]2O[C@H]2O[C@@H](CN)[C@@H](O)[C@H](O)[C@H]2N)[C@H](N)[C@@H](O)[C@@H]1O | 7.75 ± 1.70 × 10^5 M^-1 | 0.27 ± 0.02 × 10^7 M^-1 | 28.2 ± 12.0 × 10^7 M^-1 | 129.2 ± 54.1 × 10^7 M^-1 | 0.54 ± 0.15 × 10^7 M^-1 | ~ 11 °C | 5.88 ± 2.90 × 10^7 M^-1 | 1.78 ± 1.00 × 10^7 M^-1 | 12.9 ± 3.4 × 10^7 M^-1 | 25.3 ± 10.0 × 10^7 M^-1 |
